Test results published in the PolyMetriX glass transition set.
± gives the standard deviation of the reports.

Row | Structure (SMILES) | glass transition temperature [°C]
1 | *c1ccc(Cc2cccc(-n3c(=O)c4cc5c(=O)n(*)c(=O)c5cc4c3=O)c2)cc1 (repeat unit) | 339.00
2 | *c1ccc(Oc2c(C)cc(-c3cc(C)c(Oc4ccc(N5C(=O)c6ccc(Oc7ccccc7Oc7ccc8c(c7)C(=O)N(*)C8=O)cc6C5=O)cc4C(F)(F)F)c(C)c3)cc2C)c(C(F)(F)F)c1 (repeat unit) | 270.00
3 | *C(=O)c1ccc(Oc2ccc(Oc3ccc(C(=O)c4ccc5c(c4)C(=O)N(c4ccc(Oc6ccc(N7C(=O)c8ccc(*)cc8C7=O)cc6)cc4)C5=O)cc3)cc2)cc1 (repeat unit) | 220.00
4 | *C(=O)Nc1ccc(C(c2ccc(NC(=O)c3ccc4c(c3)C(=O)N(c3ccc(Oc5cccc6c(Oc7ccc(N8C(=O)c9ccc(*)cc9C8=O)cc7)cccc56)cc3)C4=O)cc2)(C(F)(F)F)C(F)(F)F)cc1 (repeat unit) | 283.00
5 | *CCCN(*)C(=O)CC (repeat unit) | 8.00
6 | *CC(*)c1ccccc1C(=O)Nc1ccccc1 (repeat unit) | 191.00
7 | *c1ccc(-c2ccc(-c3cc(-c4ccc(Oc5ccc(-c6cc(*)nc7ccccc67)cc5)cc4)c4ccccc4n3)cc2)cc1 (repeat unit) | 326.00
8 | *c1ccc(S(=O)(=O)c2ccc(-n3c(=O)c4cc5c(=O)n(*)c(=O)c5cc4c3=O)cc2)cc1 (repeat unit) | 350.00
9 | *c1ccc2c(c1)C(=O)N(c1ccc(C(=O)Nc3ccc(Oc4ccc(NC(=O)c5ccc(N6C(=O)c7ccc(C(*)(C(F)(F)F)C(F)(F)F)cc7C6=O)cc5)cc4)cc3)cc1)C2=O (repeat unit) | 322.00
10 | *c1ccc(Oc2ccc(-c3ccc(Oc4ccc(N5C(=O)c6cccc(Oc7c(Oc8cccc9c8C(=O)N(*)C9=O)cc(C(C)(C)C)cc7C(C)(C)C)c6C5=O)cc4)cc3)cc2)cc1 (repeat unit) | 237.00
11 | *c1ccc(Cc2ccc(N3C(=O)c4ccc(Sc5ccc6c(c5)C(=O)N(*)C6=O)cc4C3=O)c(C(C)(C)C)c2)cc1C(C)(C)C (repeat unit) | 300.50
12 | *CC(*)(C)C(=O)OC1CCCCC1 (repeat unit) [Poly(cyclohexyl methacrylate)] | 101.92 ± 20
13 | *Oc1c(C)cc(*)cc1-c1ccccc1 (repeat unit) | 180.00
14 | *Oc1c(C)cc(C(c2cc(C)c(OC(*)=O)c(C)c2)(C(F)(F)F)C(F)(F)F)cc1C (repeat unit) | 208.00
15 | *c1ccc(-c2ccc(-c3cc(-c4ccc(-c5ccc(Oc6ccccc6)cc5)cc4)c4cc(-c5ccc6nc(*)cc(-c7ccc(-c8ccc(Oc9ccccc9)cc8)cc7)c6c5)ccc4n3)cc2)cc1 (repeat unit) | 374.00
16 | *C(=O)c1ccc2nc(-c3ccc(-c4cnc5cc(*)ccc5n4)cc3)cnc2c1 (repeat unit) | 318.00
17 | *C(=O)Nc1cccc(NC(=O)c2ccc3c(c2)C(=O)N(c2ccc(Oc4cccc5c(N6C(=O)c7ccc(*)cc7C6=O)cccc45)cc2)C3=O)n1 (repeat unit) | 293.00
18 | *c1ccc(Oc2ccc(N3C(=O)c4ccc(-c5ccc6c(c5)C(=O)N(*)C6=O)cc4C3=O)cc2Br)c(Br)c1 (repeat unit) | 275.00
19 | *c1ccc2oc3ccc(S(=O)(=O)c4ccc(Oc5ccc(S(*)(=O)=O)cc5)cc4)cc3c2c1 (repeat unit) | 290.00
20 | *c1c(C)cc(Cc2cc(C)c(N3C(=O)c4ccc(Oc5ccc6ccc(Oc7ccc8c(c7)C(=O)N(*)C8=O)cc6c5)cc4C3=O)c(C)c2)cc1C (repeat unit) | 272.00
21 | *CC(*)C(=O)N(C)C (repeat unit) | 114.00
22 | *C(=O)Nc1cc(NC(=O)c2ccc3c(c2)C(=O)N(c2cc(-c4nc5ccccc5o4)cc(N4C(=O)c5ccc(*)cc5C4=O)c2)C3=O)cc(-c2nc3ccccc3[nH]2)c1 (repeat unit) | 371.00
23 | *CC(*)C(=O)Oc1ccc(C)cc1 (repeat unit) | 42.50
24 | *CC(*)C(=O)OCC(C)O (repeat unit) | -7.00
25 | *c1ccc2c(c1)C(=O)N(c1ccc(Cc3ccc(N4C(=O)c5ccc(C(*)(C(F)(F)F)C(F)(F)F)cc5C4=O)c(C(C)(C)C)c3)cc1C(C)(C)C)C2=O (repeat unit) | 274.00
26 | *Oc1ccc(P(=O)(c2ccccc2)c2ccc(Oc3ccc(C(C)(C)c4ccc(*)cc4)cc3)cc2)cc1 (repeat unit) | 199.00
27 | *CCCCOc1ccc(/C=C2\CC/C(=C\c3ccc(OCCCCOP(=O)(O*)OCC)c(OC)c3)C2=O)cc1OC (repeat unit) | 79.00
28 | *C(F)(F)C(*)(F)OC(F)(F)F (repeat unit) | -5.00
29 | *Cc1ccc(COP(=O)(/N=N/c2ccc(C(=O)c3ccc(/N=N/P(=O)(O*)OC)cc3)cc2)OC)cc1 (repeat unit) | 48.00
30 | *CC(*)(C#N)C(=O)OC (repeat unit) | 147.50

The remaining lines, values ahead:

Row | glass transition temperature [°C] | Structure (SMILES)
31 | 127.00 | *CC(*)(C)C(=O)Oc1ccc(C(=O)/C=C/c2ccc(Cl)cc2)cc1 (repeat unit)
32 | 134.00 | *Oc1cccc(OC(=O)c2ccc([Si](C)(C)c3ccc(C(*)=O)cc3)cc2)c1 (repeat unit)
33 | 110.00 | *CC(O)COC(=O)C1CCC(C(=O)OCC(O)COc2ccc(C3(c4ccc(O*)cc4)c4ccccc4-c4ccccc43)cc2)CC1 (repeat unit)
34 | 57.00 | *OCCOC(=O)CCCC(=O)OCCOc1nc(-c2ccc(OC)cc2)nc(*)c1-c1ccc(OC)cc1 (repeat unit)
35 | 64.00 | *c1ccc(OCCCCCCCCCCCOC(=O)c2ccc(C(=O)OCCCCCCCCCCCOc3ccc(-c4nnc(*)s4)cc3)cc2)cc1 (repeat unit)
36 | 310.00 | *Oc1c(C)c(C)c(Oc2ccc(NC(=O)c3ccc(C(=O)Nc4ccc(*)cc4)cc3)cc2)c(C)c1C (repeat unit)
37 | 57.00 | *OC(=O)C(C)NC(=O)CCCCCCCCC(=O)NC(C)C(=O)OC1COC2C(*)COC12 (repeat unit)
38 | 126.00 | *c1ccc2c(c1)Sc1cc(-c3sc4cc(*)sc4c3CCCCC)ccc1N2CCCCCC (repeat unit)
39 | 99.00 | *c1ccc(C(=O)OCCCCCCCCOc2ccc(/C=C3\CC/C(=C\c4ccc(OCCCCCCCCOC(=O)c5ccc(-c6nnc(*)o6)cc5)cc4)C3=O)cc2)cc1 (repeat unit)
40 | 82.00 | *Oc1ccc(CC(NC(=O)CCc2ccc(OC(=O)CCC(*)=O)cc2)C(=O)OC(C)C)cc1 (repeat unit)
41 | 72.00 | *CCCCCCCCCCOc1ccc(/C=N/c2ccc(-c3ccc(/N=C/c4ccc(O*)cc4O)c(OC)c3)cc2OC)c(O)c1 (repeat unit)
42 | 152.00 | *CCN(CCOC(=O)c1ccc(C(=O)O*)c(OCCC)c1)c1ccc(/N=N/c2nc(C#N)c(C#N)[nH]2)cc1 (repeat unit)
43 | 165.00 | *C1C(=O)N(c2ccc(O[Si](CC)(CC)CC)cc2)C(=O)C1* (repeat unit)
44 | 268.00 | *Oc1ccc(NC(=O)c2cc(C(=O)Nc3ccc(*)cc3)cc(C(C)(C)C)c2)cc1 (repeat unit)
45 | -55.00 | *CCCCOC(=O)CCCCCCCCCCCCCCCCCCCCCCCCCCCCCCCCCCC(=O)O* (repeat unit)
46 | 150.00 | *CCCC(CCNC(=O)c1ccc(C(=O)N*)cc1)C(C)C (repeat unit)
47 | 106.20 | *CC(*)(C)C(=O)OCCCCCCCCOc1ccc(/N=N/c2ccc(C3OCC4(CO3)CC3C=CC4C3)cc2)cc1 (repeat unit)

Row | glass transition temperature [°C] | Structure (SMILES)
48 | 200.00 | *Oc1ccc(C2(c3ccc(OC(*)=O)c(Cl)c3)CC3CCC2C3)cc1Cl (repeat unit)
49 | 217.00 | *Nc1cc(NC(=O)c2ccc(C(*)=O)cc2)cc(C(=O)OC(c2ccccc2)c2ccccc2)c1 (repeat unit)
50 | 52.00 | *c1ccc(-c2ccc(-c3ccc(-c4ccc(*)n4CCCCCCCCCCCC)s3)s2)s1 (repeat unit)
51 | 147.00 | *Oc1cccc(OC(=O)c2cccc(C(*)=O)c2)c1 (repeat unit)
52 | 70.00 | *CCCCCCCCCCCCN1C(=O)c2ccc(Oc3ccc4c(c3)C(=O)N(*)C4=O)cc2C1=O (repeat unit)
53 | 207.00 | *Oc1ccc(C2(c3ccc(OC(=O)c4cccc(C(*)=O)c4)c(C)c3)CCC3CCCCC3C2)cc1C (repeat unit)
54 | 7.50 | *CCOCCOCCOCCOc1ccc(/C=C(\C)c2ccc(O*)cc2)cc1 (repeat unit)
55 | 192.00 | *CC(C)(C)C1C(=O)N(C2CCCCC2)C(=O)C1* (repeat unit)
56 | -4.60 | *CCC[Si](*)(C)O[Si](C)(C)CCCOc1ccc(-c2ccc(C#N)cc2)cc1 (repeat unit)
57 | 66.00 | *CCCCCCCCCCC(=O)Oc1ccc2cc(OC(=O)CCCCCCCCCCn3c(=O)c4cc5c(=O)n(*)c(=O)c5cc4c3=O)ccc2c1 (repeat unit)
58 | 100.00 | *C1=C(c2ccc(-c3ccc4c(c3)C(CCCCCC)(CCCCCC)c3cc(-c5ccc(*)cc5)ccc3-4)cc2)C(=O)N(CCCCCCCCCCCC)C1=O (repeat unit)
59 | 182.00 | *CC(*)(C)C(=O)OCCn1c2ccccc2c2cc(/N=N/c3ccc([N+](=O)[O-])cc3[N+](=O)[O-])ccc21 (repeat unit)
60 | 248.00 | *Oc1ccc(Oc2ccc(C(=O)c3ccc(*)c(S(=O)(=O)O)c3)cc2S(=O)(=O)O)cc1S(=O)(=O)O (repeat unit)
61 | 87.00 | *CCCCCC(=O)Oc1ccc(OC(=O)CCCCCn2c(=O)c3cc4c(=O)n(*)c(=O)c4cc3c2=O)c(Cl)c1 (repeat unit)
62 | 172.00 | *Cc1cccc(CNC(=O)c2cccc(C(=O)N*)c2)c1 (repeat unit)
63 | 54.00 | *c1ccc(-c2ccc(-c3ccc(-c4ccc(-c5ccc(*)n5CCCCCCCCCCCC)s4)s3)s2)s1 (repeat unit)
64 | 226.00 | *C(=O)Oc1ccc(C2(c3ccc(OC(=O)c4ccc5c(c4)C(=O)N(c4ccc(-c6ccc(N7C(=O)c8ccc(*)cc8C7=O)cc6C)c(C)c4)C5=O)cc3)CC3CC2C2CCCC32)cc1 (repeat unit)
